# In patent US20100151001A1, “ETHYNYLATED HETERODINUCLEOSIDE PHOSPHATE ANALOGS, METHOD FOR THE PRODUCTION THEREOF, AND USE THEREOF” (Eberhard Karls Universitat Tubingen, priority 2007, published 2010):
# Assays:
# A549/ATCC = assay: cells; assay type: cell-based; settings: for TGI: A549/ATCC (lung), 100% growth inhibition, 48 h incubation, SRB; for CC50: Homo sapiens, A549, 48 h, read-out: LC50
# Experimental: (§1) Tumor cell lines, whose 100% growth inhibition (TGI) by the compounds according to the invention is determined at various concentrations, serve as the test system. The toxicity (LC50) of the compound to these cells is also determined. On day 0, a series of microtiter plates is inoculated with the tumor cells and preincubated for 24 h. Then the compound according to the invention is added to the cells in five in each case 10-fold diluted concentration, starting from the highest soluble concentration. After incubation for 48 hours, the cells are fixed in situ, washed and dried. Then sulforhodamine B (SRB), a pink dye that binds to the fixed cells, is added and the cells are washed again. The dye that remains represents the adherent cell mass and is determined spectroscopically. The automatically acquired data are evaluated by computer and lead, for the compound according to the invention 5-fluoro-2′-deoxyuridylyl-(5′-5′)-3′-C-ethynylcytidine and 5-fluoro-2′-deoxyuridylyl-(3′-5′)-3′-C-ethynylcytidine, to the following results, the data for the 3′-5′-coupled dimer being shown in bold above the data for the 5′-5′-coupled isomer.
# ACHN = assay: cells; assay type: cell-based; settings: 48 h; for TGI: ACHN (kidneys), 100% growth inhibition, SRB; for CC50: Homo sapiens, ACHN, read-out: LC50
# Experimental: as §1
# BT-549 = assay: cells; assay type: cell-based; settings: for TGI: BT-549 (breast), 100% growth inhibition, 48 h, SRB; for CC50: Homo sapiens, BT-549, 48 h, read-out: LC50
# Experimental: as §1
# CAK-1 = assay: cells; assay type: cell-based; settings: 48 h; for CC50: read-out: LC50; for TGI: CAK-1 (kidneys), 100% growth inhibition, SRB
# Experimental: as §1
# DU-145 = assay: cells; assay type: cell-based; settings: for TGI: DU-145 (prostate), 100% growth inhibition, 48 h, SRB; for CC50: Homo sapiens, DU-145, 48 h, read-out: LC50
# Experimental: as §1
# EKVX = assay: cells; assay type: cell-based; settings: 48 h; for TGI: EKVX (lung), 100% growth inhibition, SRB; for CC50: Homo sapiens, EKVX, read-out: LC50
# Experimental: as §1
# HCC-2998 = assay: cells; assay type: cell-based; settings: for TGI: HCC-2998 (intestine), 100% growth inhibition, 48 h, SRB; for CC50: Homo sapiens, HCC 2998, 48 h, read-out: LC50
# Experimental: as §1
# HCT-15 = assay: cells; assay type: cell-based; settings: for TGI: HCT-15 (intestine), 100% growth inhibition, 48 h, SRB; for CC50: Homo sapiens, HCT-15, 48 h, read-out: LC50
# Experimental: as §1
# HOP-92 = assay: cells; assay type: cell-based; settings: for TGI: HOP-92 (lung), 100% growth inhibition, 48 h, SRB; for CC50: Homo sapiens, HOP-92, 48 h, read-out: LC50
# Experimental: as §1
# IGROV1 = assay: cells; assay type: cell-based; settings: for CC50: Homo sapiens, IGROV-1, 48 h, read-out: LC50; for TGI: IGROV1 (ovaries), 100% growth inhibition, 48 h, SRB
# Experimental: as §1
# LOX IMVI = assay: cells; assay type: cell-based; settings: 48 h; for CC50: Homo sapiens, LOX IMVI, read-out: LC50; for TGI: LOX IMVI (melanoma), 100% growth inhibition, SRB
# Experimental: as §1
# MCF7 = assay: cells; assay type: cell-based; settings: for CC50: Homo sapiens, MCF7, 48 h, read-out: LC50; for TGI: MCF7 (breast), 100% growth inhibition, 48 h, SRB
# Experimental: as §1
# NCI-H522 = assay: cells; assay type: cell-based; settings: for CC50: Homo sapiens, NCI-H522, 48 h, read-out: LC50; for TGI: NCI-H522 (lung), 100% growth inhibition, 48 h, SRB
# Experimental: as §1
# SF-295 = assay: cells; assay type: cell-based; settings: for CC50: Homo sapiens, SF-295, 48 h, read-out: LC50; for TGI: SF-295 (central nervous system), 100% growth inhibition, 48 h, SRB
# Experimental: as §1
# SF-539 = assay: cells; assay type: cell-based; settings: for CC50: Homo sapiens, SF-539, 48 h, read-out: LC50; for TGI: SF-539 (central nervous system), 100% growth inhibition, 48 h, SRB
# Experimental: as §1
# SK-MEL-2 = assay: cells; assay type: cell-based; settings: for LC50: Homo sapiens, SK-MEL-2, 48 h, read-out: LC50; for TGI: SK-MEL-2 (melanoma), 100% growth inhibition, 48 h, SRB
# Experimental: as §1
# SNB-75 = assay: cells; assay type: cell-based; settings: for CC50: Homo sapiens, SNB-75, 48 h, read-out: LC50; for TGI: SNB-75 (central nervous system), 100% growth inhibition, 48 h, SRB
# Experimental: as §1
# T-47D = assay: cells; assay type: cell-based; settings: 48 h; for CC50: Homo sapiens, T47D, read-out: LC50; for TGI: T-47D (breast), 100% growth inhibition, SRB
# Experimental: as §1
# Tumor cell lines = assay: Cytostatic action in vitro, comparison over the tumor cell lines; assay type: cell-based
# Experimental: as §1
# [1] = tested on: LOX IMVI melanoma xenograft
# Experimental: A cell suspension of 5×10^6 tumor cells (LOX IMVI, cell line 01/A/1) was implanted subcutaneously in female athymic nude mice (Animal Production Area, Frederick, Md.). Intraperitoneal administration of the active substance began 3 days after tumor implantation. For this, the active substance was administered dissolved in 10% DMSO/common salt solution plus Tween® 80.
# Administration was carried out in each case over a four-day period and comprised a total of 5 treatments. The tests were evaluated by determining the T/C values.
# For a model based on solid tumors, a T/C value of 40 must be reached to be regarded as effective.
smiles,measurement,setting,value
"C#CC1(O)C(COP(=O)(O)OC2C[C@H](n3cc(F)c(=O)[nH]c3=O)O[C@@H]2CO)OC(n2ccc(N)nc2=O)C1O (stereo in doubt) [Example 1, 5-fluoro-2′-deoxyuridylyl-(3′-5′)-3′-C-ethynylcytidine]",TGI,A549/ATCC,29.6 µM
same,CC50,A549/ATCC,> 100 µM
same,TGI,ACHN,1.52 µM
same,CC50,ACHN,> 100 µM
same,TGI,BT-549,0.346 µM
same,CC50,BT-549,6.39 µM
same,CC50,CAK-1,> 100 µM
same,TGI,CAK-1,0.0829 µM
same,TGI,DU-145,0.44 µM
same,CC50,DU-145,> 100 µM
same,TGI,EKVX,6.37 µM
same,CC50,EKVX,> 100 µM
same,TGI,HCC-2998,0.109 µM
same,CC50,HCC-2998,1.73 µM
same,TGI,HCT-15,15.1 µM
same,CC50,HCT-15,> 100 µM
same,TGI,HOP-92,2.18 µM
same,CC50,HOP-92,> 100 µM
same,CC50,IGROV1,> 100 µM
same,TGI,IGROV1,12.9 µM
same,CC50,LOX IMVI,91.5 µM
same,TGI,LOX IMVI,0.348 µM
same,CC50,MCF7,> 100 µM
same,TGI,MCF7,0.137 µM
same,CC50,NCI-H522,> 100 µM
same,TGI,NCI-H522,1.15 µM
same,CC50,SF-295,> 100 µM
same,TGI,SF-295,1.07 µM
same,CC50,SF-539,32.2 µM
same,TGI,SF-539,0.167 µM
same,LC50,SK-MEL-2,69.5 µM
same,TGI,SK-MEL-2,0.424 µM
same,CC50,SNB-75,4.72 µM
same,TGI,SNB-75,0.882 µM
same,CC50,T-47D,> 100 µM
same,TGI,T-47D,26.7 µM
same,effectiveness compared with the 5′-5′-coupled duplex active substance (example 2),"Tumor cell lines; in vitro, tumor cell lines of the table",much more effective
same,TGI values lower compared with the 5′-5′-coupled isomer,"Tumor cell lines; often, over the tumor cell lines",up to 1000 times
same,optimum T/C value,"[1]; 11.2 mg/kg/injection intraperitoneal, 5 treatments, day 13, nude mice",16
same,maximum T/C value,"[1]; 16.75 mg/kg/injection intraperitoneal, 5 treatments, day 11 after tumor implantation, nude mice",7
same,in vivo activity in the tumor model,"[1]; LOX IMVI xenograft, overall conclusion",significant in vivo activity
"C#CC1(O)C(COP(=O)(O)OC[C@H]2O[C@@H](n3cc(F)c(=O)[nH]c3=O)CC2O)OC(n2ccc(N)nc2=O)C1O (stereo in doubt) [Example 2, 5-fluoro-2′-deoxyuridylyl-(5′-5′)-3′-C-ethynylcytidine]",TGI,A549/ATCC,>100 µM
same,CC50,A549/ATCC,> 100 µM
same,TGI,ACHN,>100 µM
same,CC50,ACHN,> 100 µM
same,TGI,BT-549,11.6 µM
same,CC50,BT-549,> 100 µM
same,CC50,CAK-1,> 100 µM
same,TGI,CAK-1,>100 µM
same,TGI,DU-145,>100 µM
same,CC50,DU-145,> 100 µM
same,TGI,EKVX,>100 µM
same,CC50,EKVX,> 100 µM
same,TGI,HCC-2998,2.95 µM
same,CC50,HCC-2998,57.2 µM
same,TGI,HCT-15,>100 µM
same,CC50,HCT-15,> 100 µM
same,TGI,HOP-92,21.5 µM
same,CC50,HOP-92,> 100 µM
same,CC50,IGROV1,> 100 µM
same,TGI,IGROV1,>100 µM
same,CC50,LOX IMVI,≥ 100 µM
same,TGI,LOX IMVI,100 µM
same,CC50,MCF7,> 100 µM
same,TGI,MCF7,>100 µM
same,CC50,NCI-H522,> 100 µM
same,TGI,NCI-H522,>100 µM
same,CC50,SF-295,> 100 µM
same,TGI,SF-295,20.6 µM
same,CC50,SF-539,> 100 µM
same,TGI,SF-539,2.01 µM
same,LC50,SK-MEL-2,76.4 µM
same,TGI,SK-MEL-2,5.78 µM
same,CC50,SNB-75,> 100 µM
same,TGI,SNB-75,>100 µM
same,CC50,T-47D,> 100 µM
same,TGI,T-47D,>100 µM
